Series [1] in a line: Phase III trials, CUSUM surveillance of prolapses and urinary incontinence. It counts as in vivo, women. From the text: Phase III consisted of studies including 3000 women. The inclusion criteria were extended so that the women were older than those participating in phase II. Subjects were randomized to take either a placebo or NNC 46-0020 in one of two doses. […] As explained in detail below, this product has motivated the choice of parameters in the examples.
Early in phase III, a number of reports of prolapses and urinary incontinence were received. It was suspected that there were too many cases of prolapses and incontinence. Therefore, it was decided to set up a surveillance program, including expedited reporting of the events even though they are not classified as serious adverse events. Furthermore, investigators were instructed specifically to check for these types of events.
First, it was decided to set up separate programs for prolapses and incontinence, but later the etiology was suspected to be the same and therefore a combined program was used. The incidence of these events is poorly documented in the literature. There are a few reports on the prevalence and based on these, an incidence of 1%/year for each type of adverse event was chosen. This gives an estimated 60 events during the first year of the trial, distributed with 40 in the treatment group, and 20 in the placebo group. An alternative considered was to have a relative risk of 2, corresponding to an expected number of […]. The lower limit c was chosen as 0.
Due to the focus on these events, a number of adverse events were reported each day, and safety committee meetings were held each week. […] At this time, the process had passed not only the limit corresponding to the incidence of 1% of each type of adverse event, but also the limit corresponding to an incidence of 10%. Such “overrunning” seems to be unavoidable for multi-center studies. The distribution 44 to 1 corresponds to a relative risk of 22 for NNC 46-0020. […]

Series [2] can be described thus: Phase II trials, adverse events. The series is classed as in vivo, women. From the text:
The present invention was used to test a particular drug compound, NNC 46-0020, which was designed to protect healthy women from getting osteoporosis.

For the compound `COc1ccc2c(c1)OC(C)(C)[C@@H](c1ccccc1)[C@@H]2c1ccc(OCCN2CCCC2)cc1` [NNC 46-0020], the “final analysis of risk of prolapses and incontinence” value in series [1] (after termination of the phase III trials, relative risk estimate reduced) was “increased risk of prolapses and incontinence”. Further, the “relative risk of prolapses and incontinence” value in series [1] (phase III, drug (two doses pooled, 2/3 of patients) versus placebo (1/3), at the committee meeting where the alarm limit was passed) is 22. In addition, the “distribution of adverse events (prolapses and incontinence), treatment group to placebo group” value in series [1] (phase III, unblinded cases at the committee meeting where the alarm limit was passed) was in the range of 44 to 1. Besides, the “adverse events in phase II trials” value in series [2] is “without major problems regarding adverse events”.

The values are drawn from patent US6639515B2, “Surveillance system for adverse events during drug development studies” (Novo Nordisk A/S, priority 2001, dated 2003).
